Measured values reported in patent US20240002375A1, “2-(INDAZOL-5-YL)-6-(PIPERIDIN-4-YL)-1,7-NAPHTHYRIDINE DERIVATIVES AND RELATED COMPOUNDS AS MODULATORS FOR SPLICING NUCLEIC ACIDS AND FOR THE TRE” (REMIX THERAPEUTICS INC., priority 2020, published 2024).

Legend:
Assay type in all cases: cell-based
[1] = tested on: SMN2 CJ mRNA; test: Gene panel canonical junction qPCR splicing assay, SMN2; details: Table 4, read-out: SMN2 IC50 (decrease in CJ mRNA levels)
Experimental: (§1) Compounds described herein were used to modulate RNA transcript abundance in cells. The expression of a target mRNA was measured by detecting the formation of an exon-exon junction in the canonical transcript (CJ). A compound mediated exon-inclusion event was detected by observing an increase in formation of a new junction with an alternative exon (AJ). Real-time qPCR assays were used to detect these splicing switches and interrogate the potency of various compounds towards different target genes. A high-throughput real time quantitative PCR (RT-qPCR) assay was developed to measure these two isoforms of the mRNA (CJ and AJ) for an exemplary gene, HTT, together with a control housekeeping gene, GAPDH or GUSB or PPIA, used for normalization. Briefly, the A673 or K562 cell line was treated with various compounds described herein (e.g., compounds of Formula (I) or (II)). After treatment, the levels of the HTT mRNA targets were determined from each sample of cell lysate by cDNA synthesis followed by qPCR. The data analysis was performed by first determining the ΔCt vs the housekeeper gene. This ΔCt was then normalized against the DMSO control (ΔΔCt) and converted to RQ (relative quantification) using the 2^(−ΔΔCt) equation. The RQ were then converted to a percentage response by arbitrarily setting an assay window of 3.5 ΔCt for HTT-CJ and an assay window of 9 ΔCt for HTT-AJ. […] The percentage response was then fitted to the 4 parametric logistic equation to evaluate the concentration dependence of compound treatment. The increase in AJ mRNA is reported as AC50 (compound concentration having 50% response in AJ increase) while the decrease in CJ mRNA levels is reported as IC50 (compound concentration having 50% response in CJ decrease). Additional studies were carried out for a larger panel of genes using the protocol provided above. The junction between flanking upstream and downstream exons was used to design canonical junction qPCR assays. At least one of the forward primer, reverse primer or the CY5-labeled 5′ nuclease probe (with 3′ quencher such as ZEN/Iowa Black FQ) was designed to overlap with the exon junction to capture the CJ mRNA transcript. BLAST was used to confirm the specificity of the probeset and parameters such as melting temperature, GC content, amplicon size, and primer dimer formation are considered during their design. Data for the decrease in CJ mRNA levels for three exemplary genes (HTT, SMN2, and Target C) analyzed in this panel are reported as IC50 (compound concentration having 50% response in CJ decrease).

[2] = tested on: Target C CJ mRNA; test: Gene panel canonical junction qPCR splicing assay, Target C; details: Table 4, read-out: Target C IC50 (decrease in CJ mRNA levels)
Experimental: as §1

[3] = tested on: HTT mRNA; test: Splicing assay (RT-qPCR) of HTT mRNA alternative junction (AJ) and canonical junction (CJ); details: A673 or K562 cells, 24 hours; for IC50: decrease in CJ mRNA, read-out: HTT CJ IC50; for AC50: increase in AJ mRNA, read-out: HTT AJ AC50
Experimental: Compounds described herein were used to modulate RNA transcript abundance in cells. The expression of a target mRNA was measured by detecting the formation of an exon-exon junction in the canonical transcript (CJ). A compound mediated exon-inclusion event was detected by observing an increase in formation of a new junction with an alternative exon (AJ). Real-time qPCR assays were used to detect these splicing switches and interrogate the potency of various compounds towards different target genes. A high-throughput real time quantitative PCR (RT-qPCR) assay was developed to measure these two isoforms of the mRNA (CJ and AJ) for an exemplary gene, HTT, together with a control housekeeping gene, GAPDH or GUSB or PPIA, used for normalization. Briefly, the A673 or K562 cell line was treated with various compounds described herein (e.g., compounds of Formula (I) or (II)). After treatment, the levels of the HTT mRNA targets were determined from each sample of cell lysate by cDNA synthesis followed by qPCR.
Materials: • Cells-to-CT 1-step kit: ThermoFisher A25602, Cells-to-CT lysis reagent: ThermoFisher 4391851C, TagMan™ Fast Virus 1-Step Master Mix: ThermoFisher 4444436 • GAPDH: VIC-PL, ThermoFisher 4326317E (Assay: Hs99999905_ml)—used for K562/suspension cell lines • GUSB: VIC-PL, ThermoFisher 4326320E (Assay: Hs99999908 ml)—used for K562/suspension cell lines • PPIA: VIC-PL, ThermoFisher 4326316E (Assay: Hs99999904 ml)—used for A673/adherent cell lines
The A673 cell line was cultured in DMEM with 10% FBS. Cells were diluted with full growth media and plated in a 96-well plate (15,000 cells in 100 ul media per well). The plate was incubated at 37° C. with 5% CO2 for 24 hours to allow cells to adhere. An 11-point 3-fold serial dilution of the compounds was made in DMSO then diluted in media in an intermediate plate. Compounds were transferred from the intermediate plate to the cell plate with the top dose at a final concentration of 10 uM in the well. Final DMSO concentration was kept at or below 0.25%. The cell plate was returned to the incubator at 37° C. with 5% CO2 for an additional 24 hours.
The K562 cell line was cultured in IMDM with 10% FBS. For K562, cells were diluted with full growth media and plated in either a 96-well plate (50,000 cells in 50 uL media per well) or a 384-well plate (8,000-40,000 cells in 45 uL media per well). An 11-point 3-fold serial dilution of the compounds were made in DMSO then diluted in media in an intermediate plate. Compound was transferred from the intermediate plate to the cell plate with the top dose at a final concentration of 10 uM in the well. Final DMSO concentration was kept at or below 0.25%. Final volume was 100 uL for 96-well plate and 50 uL for 384-well plate. The cell plate was then placed in an incubator at 37° C. with 5% CO2 for 24 hours.
The cells were then gently washed with 50 uL-100 uL cold PBS before proceeding to addition of lysis buffer. 30 uL-50 uL of room temperature lysis buffer with DNAse I (and optionally RNAsin) was added to each well. Cells were shaken/mixed thoroughly at room temperature for 5-10 minutes for lysis to take place and then 3 uL-5 uL of room temperature stop solution was added and wells were shaken/mixed again. After 2-5 minutes, the cell lysate plate was transferred to ice for RT-qPCR reaction setup. The lysates could also be frozen at −80° C. for later use.
In some cases, a direct lysis buffer was used. An appropriate volume of 3X lysis buffer (10 mM Tris, 150 mM NaCl, 1.5%-2.5% Igepal and 0.1-1 U/uL RNAsin, pH 7.4) was directly added to either K562 or A673 cells in media and mixed by pipetting 3 times. The plates were then incubated at room temperature with shaking/rocking for 20-50 minutes to allow for lysis to take place. After this time, the cell lysate plate was transferred to ice to set up for the RT-qPCR reactions. The lysates could also be frozen at −80° C. for later use. […]

[4] = tested on: HTT CJ mRNA; test: Gene panel canonical junction qPCR splicing assay, HTT; details: Table 4, read-out: HTT IC50 (decrease in CJ mRNA levels)
Experimental: as §1

Compound | IC50 [1] | IC50 [2] | IC50 [3] | AC50 [3] | IC50 [4]
Cn1cc2cc(-c3ccc4nc(N5CC[C@@H](NC6(C)CC6)C5)ccc4n3)c(O)c(F)c2n1 (single isomer, unassigned) [Compound 223] | < 100 nM | < 100 nM | < 100 nM | < 100 nM | < 100 nM
Cc1c(O)c(-c2ccc3nc(N4CC[C@@H](NC5(C)CC5)C4)ccc3n2)cc2cn(C)nc12 (single isomer, unassigned) [Compound 225] | < 100 nM | < 100 nM | < 100 nM | < 100 nM | < 100 nM
Cc1c(O)c(-c2ccc3nc(N4CC[C@H](NC5(C)CC5)C4)ccc3n2)cc2cn(C)nc12 (single isomer, unassigned) [Compound 226, 2,7-dimethyl-5-{6-[(35)-3-[(1-methylcyclopropyl)amino]pyrrolidin-1-yl]-1,5-naphthyridin-2-yl}indazol-6-ol] | < 100 nM | < 100 nM | < 100 nM | < 100 nM | < 100 nM
Cc1nc2cc(O)c(-c3ccc4nc(N5CCC(NC6CCC6)C5)ccc4n3)cc2o1 (single isomer, unassigned) [Compound 229, 6-{6-[3-(cyclobutylamino)pyrrolidin-1-yl]-1,5-naphthyridin-2-yl}-2-methyl-1,3-benzoxazol-5-ol] | < 100 nM | 100 to 1000 nM | < 100 nM | < 100 nM | < 100 nM
Cc1nc2cc(O)c(-c3ccc4nc(N5CCC(NC6CCC6)C5)ccc4n3)cc2o1 (single isomer, unassigned) [Compound 230, 6-{6-[3-(cyclobutylamino)pyrrolidin-1-yl]-1,5-naphthyridin-2-yl}-2-methyl-1,3-benzoxazol-5-ol] | < 100 nM | 100 to 1000 nM | < 100 nM | < 100 nM | < 100 nM
Cc1nc2cc(O)c(-c3ccc4nc(N5CC[C@@H](NC(C)C)C5)ccc4n3)cc2o1 (single isomer, unassigned) [Compound 232, 6-{6-[3-(isopropylamino)pyrrolidin-1-yl]-1,5-naphthyridin-2-yl}-2-methyl-1,3-benzoxazol-5-ol] | < 100 nM | < 100 nM | < 100 nM | < 100 nM | < 100 nM
Cc1nc2cc(O)c(-c3ccc4nc(N5CC[C@H](NC(C)C)C5)ccc4n3)cc2o1 (single isomer, unassigned) [Compound 233, 6-{6-[3-(isopropylamino)pyrrolidin-1-yl]-1,5-naphthyridin-2-yl}-2-methyl-1,3-benzoxazol-5-ol] | < 100 nM | < 100 nM | < 100 nM | < 100 nM | < 100 nM
Cc1nc2c(C)c(O)c(-c3ccc4nc(N5CCC(NC6CCC6)C5)ccc4n3)cc2o1 (single isomer, unassigned) [Compound 237, 6-{6-[3-(cyclobutylamino)pyrrolidin-1-yl]-1,5-naphthyridin-2-yl}-2,4-dimethyl-1,3-benzoxazol-5-ol] | < 100 nM | < 100 nM | < 100 nM | < 100 nM | < 100 nM
Cc1nc2c(F)c(O)c(-c3ccc4nc(N5CC[C@@H](NC6CC6)C5)ccc4n3)cc2o1 (single isomer, unassigned) [Compound 253, 6-{6-[3-(cyclopropylamino)pyrrolidin-1-yl]-1,5-naphthyridin-2-yl}-4-fluoro-2-methyl-1,3-benzoxazol-5-ol] | < 100 nM | < 100 nM | < 100 nM | < 100 nM | < 100 nM
Cc1nc2c(F)c(O)c(-c3ccc4nc(N5CC[C@H](NC6CC6)C5)ccc4n3)cc2o1 (single isomer, unassigned) [Compound 254, 6-{6-[3-(cyclopropylamino)pyrrolidin-1-yl]-1,5-naphthyridin-2-yl}-4-fluoro-2-methyl-1,3-benzoxazol-5-ol] | < 100 nM | < 100 nM | < 100 nM | < 100 nM | < 100 nM
Cc1nc2c(F)c(O)c(-c3ccc4nc(N5CC[C@H](NC(C)(C)C)C5)ccc4n3)cc2o1 (single isomer, unassigned) [Compound 255, 6-{6-[3-(tert-butylamino)pyrrolidin-1-yl]-1,5-naphthyridin-2-yl}-4-fluoro-2-methyl-1,3-benzoxazol-5-ol] | < 100 nM | < 100 nM | < 100 nM | < 100 nM | < 100 nM
Cc1nc2c(F)c(O)c(-c3ccc4nc(N5CC[C@@H](NC(C)(C)C)C5)ccc4n3)cc2o1 (single isomer, unassigned) [Compound 256, 6-{6-[3-(tert-butylamino)pyrrolidin-1-yl]-1,5-naphthyridin-2-yl}-4-fluoro-2-methyl-1,3-benzoxazol-5-ol] | < 100 nM | < 100 nM | < 100 nM | < 100 nM | < 100 nM
Cc1nc2cc(O)c(-c3ccc4nc(N5CC[C@H](NC6(C)CC6)C5)ccc4n3)cc2o1 (single isomer, unassigned) [Compound 257, 2-methyl-6-(6-{3-[(1-methylcyclopropyl)amino]pyrrolidin-1-yl}-1,5-naphthyridin-2-yl)-1,3-benzoxazol-5-ol] | < 100 nM | < 100 nM | < 100 nM | < 100 nM | < 100 nM
